# Values quoted from earlier work in paper PMC2217447 (The Journal of General Physiology, 2004).
# “Also recorded” adds a separate entry of the source. Read-outs that look alike come from different tables or passages of the source.
# What was measured:
# Shaker B K^+ channels [1] = target: T1, Shaker B K^+ channels (Drosophila melanogaster, UniProt P08510); conditions: external TEA, ref Gómez-Lagunas, 1997
# Shaker B K^+ channels [2] = target: T1, Shaker B K^+ channels; conditions: for effect of external K^+ on block of Shaker (in words): ref Goldstein and Miller, 1993
# T1 sequence (P08510 whole entry): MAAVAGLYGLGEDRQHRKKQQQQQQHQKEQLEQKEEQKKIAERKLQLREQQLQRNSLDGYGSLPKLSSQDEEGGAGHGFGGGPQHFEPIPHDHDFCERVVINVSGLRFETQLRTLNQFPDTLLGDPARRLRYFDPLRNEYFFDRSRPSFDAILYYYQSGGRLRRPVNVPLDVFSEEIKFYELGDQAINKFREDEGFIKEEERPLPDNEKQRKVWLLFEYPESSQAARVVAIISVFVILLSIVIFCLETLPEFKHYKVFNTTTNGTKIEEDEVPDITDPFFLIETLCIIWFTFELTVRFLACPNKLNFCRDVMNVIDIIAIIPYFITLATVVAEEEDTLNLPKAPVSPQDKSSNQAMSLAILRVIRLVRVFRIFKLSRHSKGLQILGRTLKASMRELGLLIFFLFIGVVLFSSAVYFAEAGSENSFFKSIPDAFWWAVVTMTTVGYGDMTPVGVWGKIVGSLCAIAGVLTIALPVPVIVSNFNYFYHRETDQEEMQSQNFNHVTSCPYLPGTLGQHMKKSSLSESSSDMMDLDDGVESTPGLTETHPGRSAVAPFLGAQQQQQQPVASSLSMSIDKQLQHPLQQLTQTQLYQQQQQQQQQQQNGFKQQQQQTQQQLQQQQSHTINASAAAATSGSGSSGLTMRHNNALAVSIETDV
compound,measurement,setting,value
"CC[N+](CC)(CC)CC [TEAo, tetraethylammonium]",change of binding affinity in 0 K^+ (in words),Shaker B K^+ channels [1]; Shaker channels,did not find a significant change in the binding affinity
same,affinity (Kd) for inhibiting drop of GK vs block of IK (in words),Shaker B K^+ channels [1],basically the same affinity (Kd) with which it blocks the K^+ current (IK)
same,effect on collapse of GK in 0 K^+ (in words),Shaker B K^+ channels [1],impedes the drop of GK in 0 K^+; also recorded: impedes the collapse of GK
same,effect on collapse of GK in 0 K^+ (in words),Shaker B K^+ channels [1]; listed as TEA,the collapse of GK is prevented
Agitoxin2 [AgTx2],effect of external K^+ on binding to Shaker (in words),"Shaker B K^+ channels [2]; ref Ranganathan et al., 1996",destabilized by Ko ^+ ions
ChTx R25Q: mutant R25Q (a glutamine substituting arginine in position 25) of ChTx,effect of external K^+ on block of Shaker (in words),Shaker B K^+ channels [2],destabilized by Ko ^+ ions; also recorded: decreased by Ko ^+
Charybdotoxin [ChTx],effect of external K^+ on block of Shaker (in words),Shaker B K^+ channels [2],not altered by external K^+ ions; also recorded: not destabilized by Ko ^+
